pIC50: −log10 of the molar value. *1 amine or outer side, *2 acyl side, *3 side chain or, on linkers, in order; H or OH if unused. Where a SMILES comes first, the peptide text is derived from it. Side-chain parts run from the residue outwards. The star is where a group is joined. γGlu = O=C(O)[C@H](CCC(=O)[*:2])N[*:1]; Palmitoyl = CCCCCCCCCCCCCCCC(=O)*
Legend:
[1] = tested on: diethylnitrosamine (DEN)‐induced orthotopic liver cancer; assay: DEN‐induced orthotopic liver cancer mouse model; format: in vivo; settings: administered at five‐day intervals, C57BL/6 mice
Solubility of peptides = format: physicochemical
Description: The peptides listed in Table S3 (Supporting Information) were synthesized by either ANYGEN (Kwangju, Korea) or PepMic (Suzhou, China) and achieved purity of over 95%. These peptides were synthesized using the Solid‐phase method based on the Fmoc strategy, using an Applied Biosystems 431A peptide synthesizer on a 0.25‐mmol scale. To enhance the stability of ACP52C, saturated C16 palmitic acid, DHA, and E‐pal were utilized. These fatty acids were linked to the lysine (K) residue at the N‐terminal of ACP52C or within the ACP52 and iRGD region through a covalent bond formed between the εK NH3+ and αE or γE COO‐ groups. After synthesis, the final product was prepared through lyophilization and appeared as a white amorphous powder for both ACP52C and its derivatives. To confirm their quality, the purity and molecular weight of the final product were evaluated using amino acid analysis, analytical RP‐HPLC, and MALDI‐MS. […] FQI1, Sorafenib, and cisplatin were purchased from Sigma–Aldrich (SML0413, SML2653) or Selleckchem (S1166), respectively.
Figure S21. […]
A) A schematic representation depicting the structural diagrams, molecular weights, and minimum solubilities (in water or saline) of ACP52C and its derivatives. […] Tumor weight in the sacrificed mice after completion of drug administration schedule was expressed as means ± SE. […]

[2] = tested on: CP2c transcriptional targets (FN1, OCT4, and SNAI2) in HepG2 cells; assay: RT‐qPCR transcription inhibition of CP2c targets; format: cell-based, human; settings: summary for both cell lines, 36 h after treatment; read-out: average TI50 (50% transcriptional inhibition) values of the three CP2c targets
Description: To quantify mRNA expression of the gene of interest, cells were harvested, and total cellular RNA was extracted using Qiazol reagent (Qiagen, 79306). Purified RNA was dissolved in Diethyl pyrocarbonate (DEPC) water. Reverse transcription was performed using a High‐Capacity cDNA reverse transcription kit (Toyobo, FSQ‐201) in the presence of 400 ng of total RNA and 10 pmol random hexamer. PCR was performed using rTaq Plus 5X PCR master mix (Elpis‐Biotech, EBT‐1319) and the SYBR green Master Mix Kit. Amplifications were performed using a Light cycler 1.5 real‐time PCR system.^[ [43] ^] The relative mRNA expression levels were determined using the 2(−ΔCt) method, with GAPDH transcript levels serving as an internal control. Errors were calculated from at least two independent experiments. Oligonucleotide primers used in RT–qPCR are listed in Table S2 (Supporting Information).

[3] = tested on: normal male and female mice; assay: In vivo toxicity test of ACP52C; parameters: species or system mouse; settings: ICR mice, 100 or 1000 mg kg^−1 intravenously, once or twice with four‐day interval; H&E of major organs
Description: To assess the toxicity of ACP52C, twelve 6‐weeks‐old ICR mice (six males and six females) were divided into three groups, each containing two mice: one group received a saline, another received 100 mg kg^−1 of ACP52C, and the third received 1000 mg kg^−1 of ACP52C. For each group, one mouse was intravenously injected once, and the other one was intravenously injected twice with a four‐day interval between injections. At the time of sacrifice, major organs were analyzed by H&E staining. To assess the repeated toxicity of ACP52CGK, twenty‐four 6‐weeks‐old ICR mice (twelve males and twelve females) were used, dividing them into two groups of six mice each: one group received saline, and the other received 100 mg kg^−1 of ACP52CGK. […] Body weight, water and feed consumption were measured every 3 days after injection. […] Major organs were weighed and analyzed by H&E staining. H&E‐stained tissue sections were analyzed and photographed, and the representative histological images were recorded. […]
A-C) Anticancer effects of ACP52C in xenograft model mice. […] Data are expressed as means ± SD, and the number […]
effective tumor targeting. […] The estimated residual levels of Cy5-ACP52C in the body over time were determined by quantifying the fluorescence intensity of images (right). RL50 represents the required time for a 50% retention of fluorescence level. (F) Bright field and fluorescence images of the […]

Row | Structure (SMILES) | anti‐tumor efficacy [1] | concentration at which completely dissolved (Solubility of peptides) [µg/mL] | pIC50 [2] | adverse side effects [3]
1 | CCCCCCCCCCCCCCCC(=O)N[C@@H](CCC(=O)NCCCC[C@H](NC(=O)CNC(=O)CNC(=O)[C@@H]1CCCN1C(=O)[C@H](CCCNC(=N)N)NC(=O)[C@H](CCC(N)=O)NC(=O)[C@@H]1CCCN1C(=O)[C@H](Cc1ccc(O)cc1)NC(=O)[C@H](CC(N)=O)NC(C)=O)C(=O)NCC(=O)NCC(=O)N[C@@H](CS)C(=O)N[C@@H](CCCNC(=N)N)C(=O)NCC(=O)N[C@@H](CC(=O)O)C(=O)N[C@@H](CCCCN)C(=O)NCC(=O)N1CCC[C@H]1C(=O)N[C@@H](CC(=O)O)C(=O)N[C@@H](CS)C(N)=O)C(=O)O [ACP52CGK] (Ac-NYPQRPGGK([γGlu-Palmitoyl])GGCRGDKGPDC-NH2) | remarkable anti‐tumor efficacy | ≥ 100000 | – | –
2 | CC(=O)N[C@@H](CC(N)=O)C(=O)N[C@@H](Cc1ccc(O)cc1)C(=O)N1CCC[C@H]1C(=O)N[C@@H](CCC(N)=O)C(=O)N[C@@H](CCCNC(=N)N)C(=O)N1CCC[C@H]1C(=O)N[C@@H](CS)C(=O)N[C@@H](CCCNC(=N)N)C(=O)NCC(=O)N[C@@H](CC(=O)O)C(=O)N[C@@H](CCCCN)C(=O)NCC(=O)N1CCC[C@H]1C(=O)N[C@@H](CC(=O)O)C(=O)N[C@@H](CS)C(N)=O [ACP52C] (Ac-NYPQRPCRGDKGPDC-NH2) | – | – | 4.40 to 4.46 | did not exhibit any adverse side effects

Source: article PMC10667816, “A Cell‐Penetrant Peptide Disrupting the Transcription Factor CP2c Complexes Induces Cancer‐Specific Synthetic Lethality” (Advanced Science, 2023)
